What was measured:
CA II = biological target: T1, CA II (Homo sapiens, UniProt P00918); assay: stopped-flow CO2 hydration; assay type: biochemical; conditions: 8.5 mM CO2, 20 mM HEPES-Na pH 7.5, 20 mM Na2SO4, 25 °C, 2.5 nM enzyme; Cheng-Prusoff; read-out: In vitro inhibition / Ki (CA II)
T1 construct: gene CA2; recombinant, expressed in E. coli and purified
Source text: stopped-flow CO2 hydration on CA II

CA IX = biological target: T2, CA IX (Homo sapiens, UniProt Q16790, C174S); assay: stopped-flow CO2 hydration; assay type: biochemical; conditions: 8.5 mM CO2, 20 mM HEPES-Na pH 7.5, 20 mM Na2SO4, 25 °C, 0.0025% DDM, 0.5 nM enzyme; Cheng-Prusoff; read-out: In vitro inhibition / Ki (CA IX)
T2 construct: gene CA9; extracellular part, PG and CA domains, residues 38-391, C174S; expressed in HEK 293 cells and purified
Source text: stopped-flow CO2 hydration on CA IX

Substance: [7-H2NSO2-(CH2)5–7,8-nido-C2B9H11]K [5b^−]
- Ki (CA II): 299 ± 26 nM
- Ki (CA IX): 10.6 ± 1.37 nM

Substance: 1-H2NSO2(CH2)6–1,2-closo-C2B10H11 [6a]
- Ki (CA II): 821 ± 70.7 nM
- Ki (CA IX): 44.6 ± 4.86 nM

Substance: 1-H2NSO2(CH2)5-1,2-closo-C2B10H11 [5a]
- Ki (CA II): 1300 ± 122 nM
- Ki (CA IX): 14.8 ± 1.98 nM

Substance: [7-H2NSO2-(CH2)6–7,8-nido-C2B9H11]K [6b^−]
- Ki (CA II): 29.5 ± 3.32 nM
- Ki (CA IX): 29.3 ± 7.39 nM
